Assays:
Test in all cases: Test G pre/postemergence
Assay type in all cases: in vivo
[1] = tested on: goosegrass (Eleusine indica)
Method in brief: (§1)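 Test chemicals in a non-phytotoxic solvent blend with surfactant are applied to soil after seeding or to foliage of 2–18 cm seedlings. Greenhouse response is scored visually at 12–21 days on a 0 to 100 control scale.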

[2] = tested on: Surinam grass (Brachiaria decumbens)
Method in brief: as §1

[3] = tested on: guineagrass (Panicum maximum)
Method in brief: as §1

[4] = tested on: downy bromegrass (Bromus tectorum)
Method in brief: as §1

[5] = tested on: common ragweed (Ambrosia elatior)
Method in brief: as §1

[6] = tested on: bermudagrass (Cynodon dactylon)
Method in brief: as §1

[7] = tested on: johnsongrass (Sorghum halepense)
Method in brief: as §1

[8] = tested on: quackgrass (Elytrigia repens)
Method in brief: as §1

[9] = tested on: common chickweed (Stellaria media); details: Preemergence, scale 0-100
Method in brief: as §1

[10] = tested on: Italian ryegrass (Lolium multiflorum)
Method in brief: as §1

[11] = tested on: black mustard (Brassica nigra)
Method in brief: as §1

[12] = tested on: prickly sida (Sida spinosa)
Method in brief: as §1

[13] = tested on: common mallow (Malva sylvestris)
Method in brief: as §1

[14] = tested on: tropical spiderwort (Commelina benghalensis)
Method in brief: as §1

[15] = Postemergence, 8 g ai/ha, scale 0 to 100
[16] = Postemergence, 16 g ai/ha, scale 0 to 100
[17] = Postemergence, 31 g ai/ha, scale 0 to 100
[18] = Postemergence, 62 g ai/ha, scale 0 to 100
[19] = Preemergence, 8 g ai/ha, scale 0-100
[20] = Preemergence, 16 g ai/ha, scale 0-100
[21] = Preemergence, 31 g ai/ha, scale 0-100
[22] = Preemergence, 62 g ai/ha, scale 0-100

CCOC(=O)c1nc(-c2ccc(Cl)cc2)nc(N)c1Cl [Compound 64, ethyl 6-amino-5-chloro-2-(4-chlorophenyl)-4-pyrimidinecarboxylate]
30: Plant response rating, Prickly Sida [12, 21]
100: Plant response rating, Ragweed [5, 17] | Plant response rating, Ragweed [5, 18]
40: Plant response rating, Bromegrass, Downy [4, 17] | Plant response rating, Prickly Sida [12, 15]
65: Plant response rating, Ragweed [5, 19] | Plant response rating, Ragweed [5, 20] | Plant response rating, Ragweed [5, 21] | Plant response rating, Prickly Sida [12, 16] | Plant response rating, Mallow [13, 15] | Plant response rating, Spiderwort [14, 15]
20: Plant response rating, Goosegrass [1, 18] | Plant response rating, Bromegrass, Downy [4, 16] | Plant response rating, Bermudagrass [6, 16] | Plant response rating, Quackgrass [8, 16] | Plant response rating, Quackgrass [8, 17] | Plant response rating, Ryegrass, Italian [10, 17] | Plant response rating, Black Mustard [11, 21]
80: Plant response rating, Mallow [13, 16] | Plant response rating, Spiderwort [14, 16] | Plant response rating, Spiderwort [14, 17]
90: Plant response rating, Mallow [13, 17] | Plant response rating, Mallow [13, 18] | Plant response rating, Spiderwort [14, 18] | Plant response rating, Spiderwort [14, 22]
95: Plant response rating, Ragweed [5, 22]
10: Plant response rating, Surinam Grass [2, 18] | Plant response rating, Ryegrass, Italian [10, 16] | Plant response rating, Black Mustard [11, 18]
75: Plant response rating, Bromegrass, Downy [4, 18] | Plant response rating, Ragweed [5, 15] | Plant response rating, Ragweed [5, 16] | Plant response rating, Prickly Sida [12, 17] | Plant response rating, Prickly Sida [12, 18] | Plant response rating, Spiderwort [14, 21]
0: Plant response rating, Goosegrass [1, 15] | Plant response rating, Goosegrass [1, 16] | Plant response rating, Goosegrass [1, 17] | Plant response rating, Goosegrass [1, 19] | Plant response rating, Goosegrass [1, 20] | Plant response rating, Goosegrass [1, 21] | Plant response rating, Goosegrass [1, 22] | Plant response rating, Surinam Grass [2, 15] | Plant response rating, Surinam Grass [2, 16] | Plant response rating, Surinam Grass [2, 17] | Plant response rating, Surinam Grass [2, 19] | Plant response rating, Surinam Grass [2, 20] | Plant response rating, Surinam Grass [2, 21] | Plant response rating, Surinam Grass [2, 22] | Plant response rating, Guineagrass [3, 15] | Plant response rating, Guineagrass [3, 16] | Plant response rating, Guineagrass [3, 17] | Plant response rating, Guineagrass [3, 18] | Plant response rating, Guineagrass [3, 19] | Plant response rating, Guineagrass [3, 20] | Plant response rating, Guineagrass [3, 21] | Plant response rating, Guineagrass [3, 22] | Plant response rating, Bromegrass, Downy [4, 15] | Plant response rating, Bromegrass, Downy [4, 19] | Plant response rating, Bromegrass, Downy [4, 20] | Plant response rating, Bromegrass, Downy [4, 21] | Plant response rating, Bromegrass, Downy [4, 22] | Plant response rating, Bermudagrass [6, 15] | Plant response rating, Bermudagrass [6, 19] | Plant response rating, Bermudagrass [6, 20] | Plant response rating, Bermudagrass [6, 21] | Plant response rating, Bermudagrass [6, 22] | Plant response rating, Johnsongrass [7, 15] | Plant response rating, Johnsongrass [7, 16] | Plant response rating, Johnsongrass [7, 17] | Plant response rating, Johnsongrass [7, 18] | Plant response rating, Johnsongrass [7, 19] | Plant response rating, Johnsongrass [7, 20] | Plant response rating, Johnsongrass [7, 21] | Plant response rating, Johnsongrass [7, 22] | Plant response rating, Quackgrass [8, 15] | Plant response rating, Quackgrass [8, 19] | Plant response rating, Quackgrass [8, 20] | Plant response rating, Quackgrass [8, 21] | Plant response rating, Quackgrass [8, 22] | Plant response rating, Chickweed ([9]; 8 g ai/ha) | Plant response rating, Chickweed ([9]; 31 g ai/ha) | Plant response rating, Chickweed ([9]; 62 g ai/ha) | Plant response rating, Ryegrass, Italian [10, 15] | Plant response rating, Ryegrass, Italian [10, 19] | Plant response rating, Ryegrass, Italian [10, 20] | Plant response rating, Ryegrass, Italian [10, 21] | Plant response rating, Ryegrass, Italian [10, 22] | Plant response rating, Black Mustard [11, 15] | Plant response rating, Black Mustard [11, 16] | Plant response rating, Black Mustard [11, 17] | Plant response rating, Black Mustard [11, 19] | Plant response rating, Black Mustard [11, 20] | Plant response rating, Prickly Sida [12, 19] | Plant response rating, Prickly Sida [12, 20] | Plant response rating, Mallow [13, 19] | Plant response rating, Mallow [13, 21] | Plant response rating, Mallow [13, 22] | Plant response rating, Spiderwort [14, 19]
35: Plant response rating, Bermudagrass [6, 17] | Plant response rating, Bermudagrass [6, 18] | Plant response rating, Quackgrass [8, 18] | Plant response rating, Ryegrass, Italian [10, 18] | Plant response rating, Black Mustard [11, 22]
50: Plant response rating, Prickly Sida [12, 22] | Plant response rating, Spiderwort [14, 20]

Source: patent US8802597B2, “Herbicidal pyrimidines” (E I du Pont de Nemours and Company, priority 2003, dated 2014)
